# Reference: patent US20210085711A1 (Japan Tobacco Inc., priority 2017, published 2021)
# Like-named read-outs stand apart in the source and are kept apart here.
# What was measured:
# [1] = tested on: patients with hypermenorrhea and/or patients with hypermenorrhea-associated gynecologic diseases (iron-deficiency anemia patients)
# Method: (§1) This test was a three-stage safety and efficacy clinical trial at multi-facilities. The first stage was a pre-observation period (Day −40 to Day −1), the second stage was an administration period (Day 1 to Day 48) (efficacy and safety evaluation period), and the third stage was a post-observation period (Day 49 to Day 63) (efficacy and safety evaluation period). The safety evaluation and efficacy evaluation were performed by multi-facility collaboration, placebo control, random allocation, double-blind trial, and parallel group comparison test.
# (§2) The administration period of the trial drug is seven weeks which starts from the next day of the Week 0 visit to the day before the Week 7 visit, provided that the trial drug is not taken on the scheduled Week 3 visit.
# (§3) The blood hemoglobin value (Hb), the serum iron level, the serum ferritin value, the total iron-binding capacity (TIBC) and the transferrin saturation rate (TSAT), and the mean corpuscular volume (MCV) were each examined at the observation start date, Week 0, Week 3, Week 7, the end of administration and the consultation at nine weeks after Week 0; the hepcidin concentration (Hepcidin 25) and the serum soluble transferrin receptor concentration (sTfR) were each examined on Week 0, Week 3 and Week 7 and at the end of administration; and the C-terminal FGF23 value (cFGF23) and the intact FGF23 value (iFGF23) were each examined on Week 0 and Week 7 and at the end of administration.
# [2] = tested on: patients with hypermenorrhea and/or patients with hypermenorrhea-associated gynecologic diseases (iron-deficiency anemia patients); assay: Phase II clinical trial of JTT-751: serum iron level; format: in vivo, human
# Method: as §1
# (§4) (1) Japanese patients who are 20 or more and less than 65 years old at the time of agreement and can visit an outpatient clinic (2) Patients who have an Hb value (measured using HemoCue® Hb 201 DM analyzer in the institute of clinical practice) of 7.0 g/dL or more and less than 11.0 g/dL on both the observation start date and Week 0, and the difference between the two days is 1.0 g/dL or less (3) Patients with a TIBC of 360 μg/dL or more or a serum ferritin value of less than 12 ng/mL on the observation start date
# as §2
# (§5) (2) Subsidiary evaluation items 1) Erythrocyte-related examination values and amount of change from Week 0 at each observation date 2) Iron-related test values and amount of change from Week 0 at each observation date 3) Achievement rate of target Hb value (female; 12.0 g/dL or more, male; 13.0 g/dL or more) at each observation date 4) Achievement rate of 1.0 g/dL or more and achievement rate of 2.0 g/dL or more in Hb value improvement from Week 0 at each observation date 5) Average daily change of Hb value from Week 0 to each observation date
# as §3
# [3] = tested on: patients with hypermenorrhea and/or patients with hypermenorrhea-associated gynecologic diseases (iron-deficiency anemia patients); assay: Phase II clinical trial of JTT-751: hepcidin concentration (Hepcidin 25); format: in vivo, human
# Method: as §1, §4, §2, §5, §3
# [4] = 250 mg/day, 9 weeks after Week 0
# [5] = 250 mg/day, End of administration
# [6] = 500 mg/day, 9 weeks after Week 0
# [7] = 500 mg/day, End of administration
# [8] = 1000 mg/day, 9 weeks after Week 0
# [9] = 1000 mg/day, End of administration
# [10] = 1500 mg/day, 9 weeks after Week 0
# [11] = 1500 mg/day, End of administration
# [12] = 250 mg/day, Week 3 (Week 0 not given)
# [13] = 500 mg/day, Week 3 (Week 0 not given)
# [14] = 1000 mg/day, Week 3 (Week 0 not given)
# [15] = 1500 mg/day, Week 3 (Week 0 not given)
# [16] = End of administration, JTT-751 250 mg group
# [17] = End of administration, JTT-751 500 mg group
# [18] = End of administration, JTT-751 1000 mg group
# [19] = End of administration, JTT-751 1500 mg group
# [20] = Week 0 (baseline), JTT-751 250 mg group
# [21] = Week 0 (baseline), JTT-751 500 mg group
# [22] = Week 0 (baseline), JTT-751 1000 mg group
# [23] = Week 0 (baseline), JTT-751 1500 mg group
substance,measurement,setting,value
Ferric citrate [JTT-751],"TSAT, profile from the baseline (value at Week 0), Mean",[1]; [4],4.29%
same,"TSAT, profile from the baseline (value at Week 0), Median",[1]; [4],3.85%
same,"TSAT, profile from the baseline (value at Week 0), Mean",[1]; [5],9.12%
same,"TSAT, profile from the baseline (value at Week 0), Median",[1]; [5],7.60%
same,"TSAT, profile from the baseline (value at Week 0), Mean","[1]; 250 mg/day, Week 3",5.26%
same,"TSAT, profile from the baseline (value at Week 0), Median","[1]; 250 mg/day, Week 3",4.85%
same,"TSAT, profile from the baseline (value at Week 0), Mean","[1]; 250 mg/day, Week 7",9.12%
same,"TSAT, profile from the baseline (value at Week 0), Median","[1]; 250 mg/day, Week 7",7.60%
same,"TSAT, profile from the baseline (value at Week 0), Mean",[1]; [6],7.27%
same,"TSAT, profile from the baseline (value at Week 0), Median",[1]; [6],5.90%
same,"TSAT, profile from the baseline (value at Week 0), Mean",[1]; [7],12.27%
same,"TSAT, profile from the baseline (value at Week 0), Median",[1]; [7],12.35%
same,"TSAT, profile from the baseline (value at Week 0), Mean","[1]; 500 mg/day, Week 3",8.57%
same,"TSAT, profile from the baseline (value at Week 0), Median","[1]; 500 mg/day, Week 3",3.60%
same,"TSAT, profile from the baseline (value at Week 0), Mean","[1]; 500 mg/day, Week 7",12.27%
same,"TSAT, profile from the baseline (value at Week 0), Median","[1]; 500 mg/day, Week 7",12.35%
same,"TSAT, profile from the baseline (value at Week 0), Mean",[1]; [8],12.42%
same,"TSAT, profile from the baseline (value at Week 0), Median",[1]; [8],12.60%
same,"TSAT, profile from the baseline (value at Week 0), Mean",[1]; [9],15.46%
same,"TSAT, profile from the baseline (value at Week 0), Median",[1]; [9],16.20%
same,"TSAT, profile from the baseline (value at Week 0), Mean","[1]; 1000 mg/day, Week 3",15.56%
same,"TSAT, profile from the baseline (value at Week 0), Median","[1]; 1000 mg/day, Week 3",9.90%
same,"TSAT, profile from the baseline (value at Week 0), Mean","[1]; 1000 mg/day, Week 7",15.46%
same,"TSAT, profile from the baseline (value at Week 0), Median","[1]; 1000 mg/day, Week 7",16.20%
same,"TSAT, profile from the baseline (value at Week 0), Mean",[1]; [10],11.41%
same,"TSAT, profile from the baseline (value at Week 0), Median",[1]; [10],9.95%
same,"TSAT, profile from the baseline (value at Week 0), Mean",[1]; [11],16.70%
same,"TSAT, profile from the baseline (value at Week 0), Median",[1]; [11],16.00%
same,"TSAT, profile from the baseline (value at Week 0), Mean","[1]; 1500 mg/day, Week 3",15.59%
same,"TSAT, profile from the baseline (value at Week 0), Median","[1]; 1500 mg/day, Week 3",7.90%
same,"TSAT, profile from the baseline (value at Week 0), Mean","[1]; 1500 mg/day, Week 7",16.70%
same,"TSAT, profile from the baseline (value at Week 0), Median","[1]; 1500 mg/day, Week 7",16.00%
same,"Serum iron, Mean",[2]; [4],14.3 µg/dL
same,"Serum iron, Median",[2]; [4],13.0 µg/dL
same,"Serum iron, Mean",[2]; [5],30.4 µg/dL
same,"Serum iron, Median",[2]; [5],25.0 µg/dL
same,"Serum iron, Mean",[2]; [12],19.9 µg/dL
same,"Serum iron, Median",[2]; [12],18.5 µg/dL
same,"Serum iron, Mean","[2]; 250 mg/day, Week 7",30.4 µg/dL
same,"Serum iron, Median","[2]; 250 mg/day, Week 7",25.0 µg/dL
same,"Serum iron, Mean",[2]; [6],24.6 µg/dL
same,"Serum iron, Median",[2]; [6],18.0 µg/dL
same,"Serum iron, Mean",[2]; [7],40.1 µg/dL
same,"Serum iron, Median",[2]; [7],42.5 µg/dL
same,"Serum iron, Mean",[2]; [13],29.6 µg/dL
same,"Serum iron, Median",[2]; [13],13.5 µg/dL
same,"Serum iron, Mean","[2]; 500 mg/day, Week 7",40.1 µg/dL
same,"Serum iron, Median","[2]; 500 mg/day, Week 7",42.5 µg/dL
same,serum iron level on Week 3,"[2]; 1000 mg administration group and 1500 mg administration group, Week 3",improved to a normal value
same,"Serum iron, Mean",[2]; [8],40.3 µg/dL
same,"Serum iron, Median",[2]; [8],38.0 µg/dL
same,"Serum iron, Mean",[2]; [9],48.3 µg/dL
same,"Serum iron, Median",[2]; [9],52.0 µg/dL
same,"Serum iron, Mean",[2]; [14],55.5 µg/dL
same,"Serum iron, Median",[2]; [14],36.0 µg/dL
same,"Serum iron, Mean","[2]; 1000 mg/day, Week 7",48.3 µg/dL
same,"Serum iron, Median","[2]; 1000 mg/day, Week 7",52.0 µg/dL
same,"Serum iron, Mean",[2]; [10],38.1 µg/dL
same,"Serum iron, Median",[2]; [10],34.0 µg/dL
same,"Serum iron, Mean",[2]; [11],54.4 µg/dL
same,"Serum iron, Median",[2]; [11],46.0 µg/dL
same,"Serum iron, Mean",[2]; [15],53.1 µg/dL
same,"Serum iron, Median",[2]; [15],27.0 µg/dL
same,"Serum iron, Mean","[2]; 1500 mg/day, Week 7",54.4 µg/dL
same,"Serum iron, Median","[2]; 1500 mg/day, Week 7",46.0 µg/dL
same,"serum iron level, increased to a normal value","[2]; continuous administration, Week 0, Week 3 and Week 7",about 50 μg/dL
same,"Hepcidin-25, Mean",[3]; [16],2.196 pg/mL
same,"Hepcidin-25, Median",[3]; [16],1.520 pg/mL
same,"Hepcidin-25, Mean",[3]; [17],4.818 pg/mL
same,"Hepcidin-25, Median",[3]; [17],3.925 pg/mL
same,"Hepcidin-25, Mean",[3]; [18],11.465 pg/mL
same,"Hepcidin-25, Median",[3]; [18],9.680 pg/mL
same,"Hepcidin-25, Mean",[3]; [19],11.674 pg/mL
same,"Hepcidin-25, Median",[3]; [19],8.440 pg/mL
same,"Hepcidin-25, Mean",[3]; [20],0.726 pg/mL
same,"Hepcidin-25, Median",[3]; [20],0.715 pg/mL
same,"Hepcidin-25, Mean",[3]; [21],0.593 pg/mL
same,"Hepcidin-25, Median",[3]; [21],0.290 pg/mL
same,"Hepcidin-25, Mean",[3]; [22],0.509 pg/mL
same,"Hepcidin-25, Median",[3]; [22],0.410 pg/mL
same,"Hepcidin-25, Mean",[3]; [23],0.631 pg/mL
same,"Hepcidin-25, Median",[3]; [23],0.600 pg/mL
same,"Hepcidin 25 concentration, time-dependent change","[3]; Week 0, Week 3 and Week 7",increased along with the continuous administration
same,"Hepcidin-25, Mean","[3]; Week 3, JTT-751 250 mg group",1.289 pg/mL
same,"Hepcidin-25, Median","[3]; Week 3, JTT-751 250 mg group",0.695 pg/mL
same,"Hepcidin-25, Mean","[3]; Week 3, JTT-751 500 mg group",1.839 pg/mL
same,"Hepcidin-25, Median","[3]; Week 3, JTT-751 500 mg group",0.895 pg/mL
same,"Hepcidin-25, Mean","[3]; Week 3, JTT-751 1000 mg group",8.623 pg/mL
same,"Hepcidin-25, Median","[3]; Week 3, JTT-751 1000 mg group",8.430 pg/mL
same,"Hepcidin-25, Mean","[3]; Week 3, JTT-751 1500 mg group",7.813 pg/mL
same,"Hepcidin-25, Median","[3]; Week 3, JTT-751 1500 mg group",5.940 pg/mL
same,"Hepcidin-25, Mean","[3]; Week 7, JTT-751 250 mg group",2.196 pg/mL
same,"Hepcidin-25, Median","[3]; Week 7, JTT-751 250 mg group",1.520 pg/mL
same,"Hepcidin-25, Mean","[3]; Week 7, JTT-751 500 mg group",4.818 pg/mL
same,"Hepcidin-25, Median","[3]; Week 7, JTT-751 500 mg group",3.925 pg/mL
same,"Hepcidin-25, Mean","[3]; Week 7, JTT-751 1000 mg group",11.465 pg/mL
same,"Hepcidin-25, Median","[3]; Week 7, JTT-751 1000 mg group",9.680 pg/mL
same,"Hepcidin-25, Mean","[3]; Week 7, JTT-751 1500 mg group",11.674 pg/mL
same,"Hepcidin-25, Median","[3]; Week 7, JTT-751 1500 mg group",8.440 pg/mL
